Assay results published in patent US9018388B2, “Pesticidal compositions and processes related thereto” (Dow AgroSciences LLC, priority 2012, dated 2015).

Legend:
[1] = test system: Corn Earworm (CEW) (Helicoverpa zea); assay: Bioassay on corn earworm (CEW), 128-well diet tray assay; format: in vivo; details: Helicoverpa zea; Corn earworm, 50 μg/cm^2; read-out: % Mortality CEW 50 μg/cm^2
How it was run: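 Second-instar Helicoverpa zea larvae (one to five per well) placed on artificial diet treated with 50 μg/cm^2 compound in 90:10 acetone-water, dried, eight wells per compound. Held at 25 °C, 14:10 light-dark, five to seven days; percent mortality averaged over wells.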

[2] = test system: Beet Armyworm (BAW) (Spodoptera exigua); assay: Bioassay on beet armyworm (BAW), 128-well diet tray assay; format: in vivo; details: Spodoptera exigua; Beet armyworm, 50 μg/cm^2; read-out: % Mortality BAW 50 μg/cm^2
How it was run: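 Second-instar Spodoptera exigua larvae, one to five per well, on artificial diet treated with 50 μg/cm^2 compound in 90:10 acetone-water and dried, eight wells per compound. Held at 25 °C, 14:10 light-dark for five to seven days; percent mortality averaged over wells.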

Compound | pest or weed control at 50 µg/cm2, 50 µg/cm2 [1] | pest or weed control at 50 µg/cm2, 50 µg/cm2 [2]
CCOc1ccccc1N1C(=O)CS/C1=N\N=C\c1ccc(-c2ncn(-c3ccc(OC(F)(F)F)cc3)n2)cc1 [Compound 116C] | 50 to 100% | 50 to 100%
O=C1CS/C(=N\N=C\c2ccc(-c3cn(-c4ccc(OC(F)(F)F)cc4)cn3)cc2)N1c1c(Cl)cccc1Cl [Compound 102C] | 50 to 100% | 50 to 100%
Fc1cccc(F)c1N1CS/C1=N\N=C\c1ccc(-c2ncn(-c3ccc(OC(F)(F)F)cc3)n2)cc1 [Compound 245C] | 50 to 100% | 50 to 100%
CCc1cccc(C)c1N1CS/C1=N\N=C\c1ccc(-c2ncn(-c3ccc(OC(F)(F)F)cc3)n2)cc1 [Compound 243C] | 50 to 100% | 50 to 100%
Cc1cccc(Cl)c1N1CS/C1=N\N=C\c1ccc(-c2ncn(-c3ccc(OC(F)(F)F)cc3)n2)cc1 [Compound 246C] | 50 to 100% | 50 to 100%
FC(F)(F)Oc1ccc(-n2cnc(-c3ccc(/C=N/N=C4\SCN4c4c(Cl)cccc4Cl)cc3)n2)cc1 [Compound 244C] | 50 to 100% | 50 to 100%
CCC(C)c1ccccc1N1CCCS/C1=N\N=C\c1ccc(-c2ncn(-c3ccc(OC(F)(F)F)cc3)n2)cc1 (centres unmarked) [Compound 183C] | 50 to 100% | 50 to 100%
FC(F)(F)Oc1ccc(-n2cnc(-c3ccc(/C=N/N=C4\SCCN4c4c(Cl)cccc4C(F)(F)F)cc3)n2)cc1 [Compound 149C] | 50 to 100% | 50 to 100%
O=C1CCS/C(=N\N=C\c2ccc(-c3ncn(-c4ccc(OC(F)(F)F)cc4)n3)cc2)N1c1c(F)cccc1F [Compound 226C] | 50 to 100% | 50 to 100%
CC1S/C(=N\N=C\c2ccc(-c3ncn(-c4ccc(OC(F)(F)F)cc4)n3)cc2)N(c2ccccc2C2CC2)C1=O (centres unmarked) [Compound 127C] | 50 to 100% | 50 to 100%
Cc1cc(C)c(N2/C(=N/N=C/c3ccc(-c4ncn(-c5ccc(OC(F)(F)F)cc5)n4)cc3)SCCC2C)c(C)c1 (centres unmarked) [Compound 218C] | 50 to 100% | 50 to 100%
O=C1CS/C(=N\N=C\c2ccc(-c3ncn(-c4ccc(OC(F)(F)F)cc4)n3)cc2)N1c1c(Br)cccc1Br [Compound 99C] | 50 to 100% | 50 to 100%
COc1cc(C)c(N2C(=O)CS/C2=N\N=C\c2ccc(-c3ncn(-c4ccc(OC(F)(F)F)cc4)n3)cc2)c(C)n1 [Compound 101C] | 50 to 100% | 50 to 100%
Cc1cccc(C)c1/N=C(/N/N=C/c1ccc(-c2ncn(-c3ccc(OC(F)(F)F)cc3)n2)cc1)SCc1ccccc1F [Compound 11C] | 50 to 100% | 50 to 100%
CCC1CS/C(=N\N=C\c2ccc(-c3ncn(-c4ccc(OC(F)(F)F)cc4)n3)cc2)N1c1c(C)cccc1Cl (centres unmarked) [Compound 167C] | 50 to 100% | 50 to 100%
COc1ccc(N2/C(=N/N=C/c3ccc(-c4ncn(-c5ccc(OC(F)(F)F)cc5)n4)cc3)SCC2C)c(C)c1 (centres unmarked) [Compound 162C] | 50 to 100% | 50 to 100%
CCCc1ccccc1N1C(=O)C(C)S/C1=N\N=C\c1ccc(-c2ncn(-c3ccc(OC(F)(F)F)cc3)n2)cc1 (centres unmarked) [Compound 128C] | 50 to 100% | 50 to 100%
Cc1cccc(C)c1N1C(=O)CS/C1=N\N=C\c1ccc(-c2ccn(-c3ccc(OC(F)(F)F)cc3)n2)cc1 [Compound 103C] | 50 to 100% | 50 to 100%
COc1cccc(N2CCCS/C2=N\N=C\c2ccc(-c3ncn(-c4ccc(OC(F)(F)F)cc4)n3)cc2)c1 [Compound 206C] | 50 to 100% | 50 to 100%
CC(C)c1cccc(F)c1N1CS/C1=N\N=C\c1ccc(-c2ncn(-c3ccc(OC(F)(F)F)cc3)n2)cc1 [Compound 250C] | 50 to 100% | 50 to 100%

Compound | pest or weed control at 50 µg/cm2, 50 µg/cm2 [1] | pest or weed control at 50 µg/cm2, 50 µg/cm2 [2]
COc1cc(C)c(/N=C(\N/N=C/c2ccc(-c3ncn(-c4ccc(C(F)(F)F)cc4)n3)cc2)SCOC(=O)C(C)C)c(C)c1 [Compound 46C] | 50 to 100% | 50 to 100%
CC(/N=C(/N/N=C/c1ccc(-c2ncn(-c3ccc(OC(F)(F)F)cc3)n2)cc1)SCC(=O)O)c1ccccc1 (centres unmarked) [Compound 54C] | 50 to 100% | 50 to 100%
CC(C)(C)c1ccccc1N1CCCS/C1=N\N=C\c1ccc(-c2ncn(-c3ccc(OC(F)(F)F)cc3)n2)cc1 [Compound 210C] | 50 to 100% | 50 to 100%
O=C1CS/C(=N\N=C\c2ccc(-c3ncn(-c4ccc(OC(F)(F)F)cc4)n3)cc2)N1c1c(Cl)cccc1Cl [Compound 70C] | 50 to 100% | 50 to 100%
CC(C)c1ccccc1N1CS/C1=N\N=C\c1ccc(-c2ncn(-c3ccc(OC(F)(F)F)cc3)n2)cc1 [Compound 240C] | 50 to 100% | 50 to 100%
FC(F)(F)Oc1ccc(-n2cnc(-c3ccc(/C=N/N=C4\SCCCN4c4ccccc4OC(F)(F)F)cc3)n2)cc1 [Compound 199C] | 50 to 100% | 50 to 100%
Cc1cc(C)c(N2/C(=N/N=C/c3ccc(-c4ncn(-c5ccc(OC(F)(F)F)cc5)n4)cc3)SCC2C)c(C)c1 (centres unmarked) [Compound 161C] | 50 to 100% | 50 to 100%
Fc1cccc(Cl)c1N1CCS/C1=N\N=C\c1ccc(-c2ncn(-c3ccc(OC(F)(F)F)cc3)n2)cc1 [Compound 143C] | 50 to 100% | 50 to 100%
COc1cc(C)c(-n2c(C)cs/c2=N\N=C\c2ccc(-c3ncn(-c4ccc(OC(F)(F)F)cc4)n3)cc2)c(C)c1 [Compound 172C] | 50 to 100% | 50 to 100%
CC1CCS/C(=N\N=C\c2ccc(-c3ncn(-c4ccc(OC(F)(F)F)cc4)n3)cc2)N1c1ccccc1C(C)(C)C (centres unmarked) [Compound 222C] | 50 to 100% | 50 to 100%
FC(F)(F)Oc1ccc(-n2cnc(-c3ccc(/C=N/N=C4\SCCN4c4ccccc4-c4ccccc4)cc3)n2)cc1 [Compound 144C] | 50 to 100% | 50 to 100%
COCOCC(C)C(=O)OCS/C(=N\c1c(C)cc(OC)cc1C)N/N=C/c1ccc(-c2ncn(-c3ccc(OC(F)(F)F)cc3)n2)cc1 (centres unmarked) [Compound 42C] | 50 to 100% | 50 to 100%
COc1cc(C)c(/N=C(/N/N=C/c2ccc(-c3ncn(-c4ccc(OC(F)(F)F)cc4)n3)cc2)SCC(=O)NCCCN)c(C)c1 [Compound 64C] | 50 to 100% | 50 to 100%
Cc1cc(C)c(N2CCCS/C2=N\N=C\c2ccc(-c3ncn(-c4ccc(OC(F)(F)F)cc4)n3)cc2)c(C)c1 [Compound 184C] | 50 to 100% | 50 to 100%
Cc1cccc(C)c1N1C(=O)CCS/C1=N\N=C\c1ccc(-c2ncn(-c3ccc(OC(F)(F)F)cc3)n2)cc1 [Compound 223C] | 50 to 100% | 50 to 100%
COc1cc(C)c(/N=C(/N/N=C/c2ccc(-c3ncn(-c4ccc(OC(F)(F)F)cc4)n3)cc2)SCOC(=O)C2CCCO2)c(C)c1 (centres unmarked) [Compound 44C] | 50 to 100% | 50 to 100%
CC1CS/C(=N\N=C\c2ccc(-c3ncn(-c4ccc(OC(F)(F)F)cc4)n3)cc2)N1c1c(F)cccc1F (centres unmarked) [Compound 159C] | 50 to 100% | 50 to 100%
Cc1cnccc1N1C(=O)CS/C1=N\N=C\c1ccc(-c2ncn(-c3ccc(OC(F)(F)F)cc3)n2)cc1 [Compound 118C] | 50 to 100% | 50 to 100%
CCc1ccccc1N1CCCS/C1=N\N=C\c1ccc(-c2ncn(-c3ccc(OC(F)(F)F)cc3)n2)cc1 [Compound 185C] | 50 to 100% | 50 to 100%
Cc1cccc(C)c1/N=C(/N/N=C/c1ccc(-c2ncn(-c3ccc(OC(F)(F)F)cc3)n2)cc1)SCOC(=O)C(C)(C)C [Compound 36C] | 50 to 100% | 50 to 100%
